Test results: ChEMBL document CHEMBL1201862, “PubChem BioAssay data set” (2004)
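Growth conditions: 96-well plates. Treatment: test compound, 48 hours, 5 concentrations. Analysis: linear interpolation between bracketing concentrations; unreached endpoints set to highest concentration. Abbreviation: GI50, concentration required for 50% inhibition of growth.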 Activity calls are given as the source filed them. Cut-off read from the data, not from the text of the source: active = GI50 up to about 1.1 µM and inactive = higher.

Assays:
Assay in all cases: growth of human tumour cells (NCI), 48 h
[1] = test system: A498
[2] = test system: A549
[3] = test system: HL-60
[4] = test system: HT-29
[5] = test system: MDA-MB-231
[6] = test system: MDA-N
[7] = test system: Malme-3M
[8] = test system: NCI-H23
[9] = test system: NCI/ADR-RES
[10] = test system: OVCAR-4
[11] = test system: RPMI-8226
[12] = test system: SF-295
[13] = test system: SN12C
[14] = test system: SNB-19
[15] = test system: TK-10
[16] = test system: UACC-62
[17] = test system: UO-31
[18] = test system: HOP-92
[19] = test system: UACC-257

Measured: GI50

C#CCOCC12C=CC(O1)C1C(=O)N(C)C(=O)C12 (stereo not given)
inactive: [1] > 100 µM | [2] > 100 µM | [3] > 100 µM | [4] > 100 µM | [5] > 100 µM | [6] > 100 µM | [7] > 100 µM | [8] > 100 µM | [9] > 100 µM | [10] > 100 µM | [11] > 100 µM | [12] > 100 µM | [13] > 100 µM | [14] > 100 µM | [15] > 100 µM | [16] > 100 µM | [17] > 100 µM

Cc1cc2c(c(C(=O)NCCC(=O)O)c1)Oc1c(cc(C)cc1C(=O)NCCC(=O)O)S2
inactive: [2] > 100 µM | [18] > 100 µM | [4] > 100 µM | [5] > 100 µM | [6] > 100 µM | [7] > 100 µM | [8] > 100 µM | [9] > 100 µM | [10] > 100 µM | [11] > 100 µM | [12] > 100 µM | [13] > 100 µM | [14] > 100 µM | [15] > 100 µM | [19] > 100 µM | [16] > 100 µM

CCN(CC)CCC(=O)NC1c2ccc(Cl)cc2Oc2c(C)cccc21 (stereo not given)
inactive: [2] 16.5 µM | [3] 13.9 µM | [18] 25.8 µM | [4] 12.9 µM | [5] 20.8 µM | [6] 16.6 µM | [8] 17.4 µM | [9] 16.8 µM | [10] 14.3 µM | [11] 24.9 µM | [12] 18.6 µM | [13] 17.3 µM | [14] 14 µM | [15] 14.6 µM | [19] 17.1 µM | [16] 16.9 µM | [17] 8.89 µM

CC(C)(C)OC(=O)NCCC(N)=S
inactive: [1] > 100 µM | [2] > 100 µM | [3] > 100 µM | [18] > 100 µM | [4] > 100 µM | [6] > 100 µM | [7] > 100 µM | [8] > 100 µM | [9] > 100 µM | [11] > 100 µM | [12] > 100 µM | [13] > 100 µM | [14] > 100 µM | [15] > 100 µM | [19] > 100 µM | [16] > 100 µM | [17] > 100 µM

CCC1OC2(C)CC(C#N)(C#N)C1(C#N)C(=N)O2 (stereo not given)
inactive: [1] > 100 µM | [2] > 100 µM | [3] > 100 µM | [18] > 100 µM | [5] > 100 µM | [6] > 100 µM | [7] > 100 µM | [8] > 100 µM | [12] > 100 µM | [13] > 100 µM | [14] > 100 µM | [15] > 100 µM | [19] > 100 µM | [16] > 100 µM | [17] > 100 µM

CN1CCN(c2cc3c(cc2F)c(=O)c(C(=O)O)cn3C2CC2)CC1CC#N (stereo not given)
inactive: [1] > 100 µM | [2] > 100 µM | [3] > 100 µM | [4] > 100 µM | [5] > 100 µM | [6] > 100 µM | [7] > 100 µM | [8] > 100 µM | [9] > 100 µM | [10] > 100 µM | [11] > 100 µM | [12] > 100 µM | [13] > 100 µM | [14] > 100 µM | [15] > 100 µM | [19] > 100 µM | [16] > 100 µM | [17] > 100 µM

Cc1cc(C)c(N[S+]([O-])c2cccc(C(F)(F)F)c2)c(C)c1 (stereo not given)
inactive: [1] > 100 µM | [2] > 100 µM | [3] > 100 µM | [18] > 100 µM | [4] > 100 µM | [6] > 100 µM | [7] > 100 µM | [8] > 100 µM | [9] > 100 µM | [11] > 100 µM | [12] > 100 µM | [13] > 100 µM | [14] > 100 µM | [15] > 100 µM | [19] > 100 µM | [17] > 100 µM

COc1ccc(O)c(/C=N/CCC/N=C/c2cc(OC)ccc2O)c1
inactive: [1] 8.91 µM | [2] 70.8 µM | [3] 1.21 µM | [18] 20.2 µM | [4] 37.5 µM | [5] 31.3 µM | [6] 31.3 µM | [7] 13.7 µM | [8] 43.5 µM | [10] 21.8 µM | [11] 11.7 µM | [12] 18.1 µM | [13] 30 µM | [14] 21.6 µM | [15] 34.9 µM | [19] 23.7 µM | [16] 33.1 µM | [17] 33.5 µM

CCCC(C)c1c(Cl)nc(Cl)nc1Cl (stereo not given)
inactive: [2] 10.1 µM | [3] 2.1 µM | [4] 11.4 µM | [5] 9.27 µM | [6] 4.72 µM | [7] 8.45 µM | [8] 3.18 µM | [9] 33.4 µM | [10] 17.1 µM | [11] 5.53 µM | [12] 18.5 µM | [13] 7.94 µM | [14] 18.2 µM | [15] 20.9 µM | [19] 11 µM | [16] > 10 µM | [17] 19.5 µM

CO/C(=N\N=C\c1cccc(Cl)c1)c1ccncc1
inactive: [2] > 10 µM | [3] > 10 µM | [18] > 10 µM | [4] > 10 µM | [5] > 10 µM | [6] > 10 µM | [7] > 10 µM | [8] > 10 µM | [9] > 10 µM | [10] > 10 µM | [11] > 10 µM | [12] > 10 µM | [13] > 10 µM | [14] > 10 µM | [15] > 10 µM | [19] > 10 µM | [17] > 10 µM

C=C(COC(=O)C(C)C)[C@H]1Oc2ccc(C(C)=O)cc2[C@@H]1OC(=O)C(C)C
inactive: [2] > 100 µM | [3] 53.6 µM | [4] > 100 µM | [5] > 100 µM | [6] > 100 µM | [7] > 100 µM | [8] > 100 µM | [10] > 100 µM | [11] 76.4 µM | [12] > 100 µM | [13] > 100 µM | [14] > 100 µM | [15] > 100 µM | [19] > 100 µM | [16] > 100 µM | [17] > 100 µM

O=P1(Cc2ccccc2)N(Cc2ccccc2)[C@@H]2CCCC[C@H]2N1Cc1ccccc1
inactive: [2] 6.17 µM | [3] 4.67 µM | [4] 5.32 µM | [5] 10.6 µM | [6] 6.82 µM | [7] 17.9 µM | [8] 9.98 µM | [9] 5.85 µM | [10] 3.01 µM | [12] 6.59 µM | [13] 10.4 µM | [14] 10.6 µM | [15] 13.5 µM | [19] 6.41 µM | [16] 7.74 µM | [17] 6.52 µM
